Results reported in ChEMBL document CHEMBL3885881, “DrugMatrix”.

Species on record: Rattus norvegicus
Assay: DrugMatrix - Regimen: Daily Repeat
Type: toxicity, organism-based, Sprague-Dawley
Set-up: regimen Daily Repeat, gender Male, age 6-8 weeks
Conditions: in vivo, po, 0 mg/kg, route oral GAVAGE, dose level Control, vehicle .5 % CMC; for ABSOLUTE BASOPHIL / ABSOLUTE EOSINOPHIL / ABSOLUTE LYMPHOCYTE / ABSOLUTE MONOCYTE / ABSOLUTE SEGMENTED NEUTROPHIL / BASOPHIL / EOSINOPHIL / ERYTHROCYTE COUNT / HEMATOCRIT / HEMOGLOBIN / LEUKOCYTE COUNT / LYMPHOCYTE / MEAN CORPUSCULAR HEMOGLOBIN / MEAN CORPUSCULAR HEMOGLOBIN CONCENTRATION / MEAN CORPUSCULAR VOLUME / MONOCYTE / NEUTROPHIL / NUCLEATED RED BLOOD CELLS / PLATELET COUNT: tissue Blood; for ALANINE AMINOTRANSFERASE / ALBUMIN / ALKALINE PHOSPHATASE / ASPARTATE AMINOTRANSFERASE / BLOOD UREA NITROGEN / CARBON DIOXIDE / CHLORIDE / CHOLESTEROL / CREATINE PHOSPHOKINASE / CREATININE / GLUCOSE / LACTATE DEHYDROGENASE / LIPASE / PHOSPHORUS / POTASSIUM / SODIUM / TOTAL BILIRUBIN / TOTAL PROTEIN / URIC ACID: tissue Plasma

## C[C@H]1O[C@@H](n2cc(F)c(=O)[nH]c2=O)[C@H](O)[C@@H]1O [DOXIFLURIDINE]
72 h, time 3 day
  ABSOLUTE BASOPHIL: 0 CELLS/uL
  ABSOLUTE EOSINOPHIL: 0 CELLS/uL
  ABSOLUTE LYMPHOCYTE: 12191.17 CELLS/uL
  ABSOLUTE MONOCYTE: 183.17 CELLS/uL
  ABSOLUTE SEGMENTED NEUTROPHIL: 1192.33 CELLS/uL
  BASOPHIL: 0%
  EOSINOPHIL: 0%
  ERYTHROCYTE COUNT: 5.51 x10E6/uL
  HEMATOCRIT: 35.45%
  HEMOGLOBIN: 13.82 G/DL
  LEUKOCYTE COUNT: 13.57 x10E3/uL
  LYMPHOCYTE: 89.83%
  MEAN CORPUSCULAR HEMOGLOBIN: 25.1 pg
  MEAN CORPUSCULAR HEMOGLOBIN CONCENTRATION: 38.98 G/DL
  MEAN CORPUSCULAR VOLUME: 64.42 fL
  MONOCYTE: 1.33%
  NEUTROPHIL: 8.83%
  NUCLEATED RED BLOOD CELLS: 0 /100WBC
  PLATELET COUNT: 1118.17 x10E3/uL
  ALANINE AMINOTRANSFERASE: 55 u/L
  ALBUMIN: 4.15 G/DL
  ALKALINE PHOSPHATASE: 449.5 u/L
  ASPARTATE AMINOTRANSFERASE: 112.83 u/L
  BLOOD UREA NITROGEN: 17.33 mg/dL
  CARBON DIOXIDE: 29.5 mmol/L
  CHLORIDE: 101 MEQ/L
  CHOLESTEROL: 70 mg/dL
  CREATINE PHOSPHOKINASE: 1325.83 u/L
  CREATININE: 0.18 mg/dL
  GLUCOSE: 171.5 mg/dL
  LACTATE DEHYDROGENASE: 386 u/L
  LIPASE: 10 u/L
  PHOSPHORUS: 11.57 mg/dL
  POTASSIUM: 6.21 MEQ/L
  SODIUM: 141.65 MEQ/L
  TOTAL BILIRUBIN: 0.15 mg/dL
  TOTAL PROTEIN: 5.75 G/DL
  URIC ACID: 1.28 mg/dL
120 h, time 5 day
  ABSOLUTE BASOPHIL: 0 CELLS/uL
  ABSOLUTE EOSINOPHIL: 138.17 CELLS/uL
  ABSOLUTE LYMPHOCYTE: 13283.17 CELLS/uL
  ABSOLUTE MONOCYTE: 303.83 CELLS/uL
  ABSOLUTE SEGMENTED NEUTROPHIL: 1308.17 CELLS/uL
  BASOPHIL: 0%
  EOSINOPHIL: 1%
  ERYTHROCYTE COUNT: 5.32 x10E6/uL
  HEMATOCRIT: 33.8%
  HEMOGLOBIN: 13.63 G/DL
  LEUKOCYTE COUNT: 15.03 x10E3/uL
  LYMPHOCYTE: 88.33%
  MEAN CORPUSCULAR HEMOGLOBIN: 25.68 pg
  MEAN CORPUSCULAR HEMOGLOBIN CONCENTRATION: 40.35 G/DL
  MEAN CORPUSCULAR VOLUME: 63.67 fL
  MONOCYTE: 1.83%
  NEUTROPHIL: 8.83%
  NUCLEATED RED BLOOD CELLS: 0 /100WBC
  PLATELET COUNT: 1097.5 x10E3/uL
  ALANINE AMINOTRANSFERASE: 54.5 u/L
  ALBUMIN: 4.27 G/DL
  ALKALINE PHOSPHATASE: 337 u/L
  ASPARTATE AMINOTRANSFERASE: 94.67 u/L
  BLOOD UREA NITROGEN: 17 mg/dL
  CARBON DIOXIDE: 28.33 mmol/L
  CHLORIDE: 101.5 MEQ/L
  CHOLESTEROL: 71.33 mg/dL
  CREATINE PHOSPHOKINASE: 628.17 u/L
  CREATININE: 0.19 mg/dL
  GLUCOSE: 177.83 mg/dL
  LACTATE DEHYDROGENASE: 500.5 u/L
  LIPASE: 9.5 u/L
  PHOSPHORUS: 12.3 mg/dL
  POTASSIUM: 5.63 MEQ/L
  SODIUM: 143.03 MEQ/L
  TOTAL BILIRUBIN: 0.2 mg/dL
  TOTAL PROTEIN: 6.02 G/DL
  URIC ACID: 1.5 mg/dL
